Data: patent publication US11377444B2, “Pyridopyrimidine compounds acting as mTORC 1/2 dual inhibitors” (MEDSHINE DISCOVERY INC., priority 2017, dated 2022)

Tests used:
[1] = system: HT-29 cell; assay: Cell proliferation inhibitory activity (Cell-Titer-Glo), HT-29; type: cell-based; settings: 3 days incubation
Source text: (§1) Experimental Embodiment 2: Evaluation of Cell Proliferation Inhibitory Activity
(§2) Experiment objective: To detect cell proliferation inhibitory activity of the tested compounds.
(§3) Experimental principle: The luciferase in the Cell-Titer-Glo reagent produces oxyluciferin using luciferin, oxygen and ATP as reaction substrates, and releases energy in the form of light. Since the reaction of luciferase requires ATP, the total amount of light generated by the reaction is proportional to the total amount of ATP that reflects cell viability.
(§4) Cell lines: MCF-7 cell line […], HT-29 cell line (ATCC-HTB-38), OE21 (ECACC-96062201), NCI-N87 cell line (ATCC-CRL-5822)
(§5) Cell culture medium: (RPMI 1640 culture medium (Invitrogen #1868546; 10% serum Invitrogen #1804958; L-glutamine 1×, Invitrogen #1830863; dual antibiotic Hyclone #J170012))
(§6) Cell Titer-Glo® Luminescent Cell Viability Assay Kit (Promega #G7573)
(§7) The cells were inoculated in a 384- or 96-well plate with a density of 1000 cells per well and 25 μL per well according to the instructions of the cell inoculating plate. The edge wells were not inoculated with cells, and was supplemented with […].
(§8) (i) The mother solution of the compound was 10 mM, and diluted with DMSO to an initial concentration of 4 mM. The compound was added to the compound mother solution, 9 μL per well.
(§9) (ii) The compound was diluted with ECHO liquid-handling workstation. Each well of the cell plate was added with 125 nL compound. Each well of the cell wells in 2nd column and 23rd column was added with 125 nL DMSO, and each of the PBS wells in 1st column and 24th column was added with 125 nL DMSO.
(§10) (iii) Each well of the cell plate was supplemented with 25 μL culture medium, the final volume in each well of the cell plate was 50 μL, […] 3 times dilution, 10 concentrations, each concentration was duplicated in left and right wells, the final DMSO concentration was 0.25%.
(§11) 2.3. After addition of the compound, centrifugation was performed at 1000 rpm for 1 min, and the cell plate was placed in a 37° C., 5% CO2 incubator for 3 days.
(§12) The cell plate was taken out from the incubator and equilibrated at room temperature for 30 minutes. 25 μL Cell-Titer-Glo reagent was added to each well, shaken for one minute to mix thoroughly, centrifuged at 1000 rpm for 1 minute. After 10 minutes, the plate was read on PerkinElmer Envision with a […] reading time was set at 0.2 second.

[2] = target: T1, mTOR kinase (mTORC1 and mTORC2 kinase complex) (Homo sapiens, UniProt P42345); assay: In vitro evaluation of mTOR kinase inhibitory activity (DiscoverX ligand-bead competition binding, qPCR readout)
T1 construct: purchased DiscoverX; host or cells: HEK-293
Description: Experimental Embodiment 1: In Vitro Evaluation of mTOR Kinase Inhibitory Activity This experiment was performed by DiscoverX. All materials and methods were obtained from DiscoverX.
Kinase activity analysis.
1. Labeled mTOR kinase was stably expressed in HEK-293 cells.
2. Streptavidin magnetic beads were treated with biotinylated small molecule ligands at room temperature for 30 minutes to produce affinity resin for kinase analysis;
3. Ligand beads were blocked with excess biotin and washed with buffer (1% bovine serum albumin, […]) to remove unbound ligand and non-specifically bound ligand;
4. The assembly of kinase and ligand and affinity beads, and the binding reaction between the compound and the three were performed in buffer (20% blocking buffer, 0.17x phosphate buffer, 0.05% Tween […]);
5. The test compounds were dissolved in dimethyl sulfoxide;
6. All test compounds were dissolved in DMSO, and then directly diluted […]
7. The solution was placed in a 384-well polypropylene plate, wherein the volume of each well was 0.02 mL;
8. The plate was shaked for an hour at room temperature;
9. The plate was washed with buffer (1× PBS, 0.05% Tween 20);
10. The affinity beads were resuspended in buffer (1× PBS, 0.05% Tween […] non-biotin affinity ligand) and incubated at room temperature for 30 minutes;
11. The kinase concentration in the eluate was deteced by qPCR.

[3] = system: MCF-7 cell; assay: Cell proliferation inhibitory activity (Cell-Titer-Glo), MCF-7; type: cell-based; settings: Homo sapiens, MCF7, 72 h; 3 days incubation
Source text: as §1, §2, §3, §4, §5, §6, §7, §8, §9, §10, §11, §12

[4] = system: human breast cancer MCF-7 cell subcutaneous xenograft tumor; assay: In vivo pharmacodynamic study, MCF-7 subcutaneous xenograft tumor; parameters: species or system BALB/c nude mouse; settings: 15 mg/kg
Source text: Experimental Embodiment 4: In Vivo Pharmacodynamic Study on BALB/c Nude Mouse Model of Human Breast Cancer MCF-7 Cell Subcutaneous Xenograft Tumor
Experimental objective: To study the efficacy of the test compounds on human breast cancer MCF-7 cell subcutaneous xenograft tumor in BALB/c nude mouse model.
Experimental animals: Female BALB/c nude mice, 6-8 weeks old, weighing 18-22 grams; supplier: Shanghai Xipuer-Bikai Experimental Animal Co., Ltd.
Human breast cancer MCF-7 cells (ECACC, article number: 86012803) were subjected to in vitro monolayer culture under the conditions of EMEM (EBSS)+2 mM […]+1% Non Essential Amino Acids (NEAA) medium containing 10% fetal bovine serum, 100 U/mL penicillin and 100 μg/mL streptomycin, and 37° C., 5% CO2incubator. Conventional digestion treatment was carried out with trypsin-EDTA twice a week for cell passage. When the cell saturation was 80%-90%, and the quantity reached the requirement, the cells were collected, counted and inoculated.
Estrogen tablets (0.18 mg) were inoculated into the left back of each mouse three days before cell inoculation, 0.2 mL (1×10^7) MCF-7 cells (added with matrigel, volume ratio of 1:1) were subcutaneously inoculated into the right back of each mouse. When the average volume of tumor reached 142 mm^3, the mice were divided into groups and began to be administrated.
The test compounds were prepared into clear solutions of 0.75 mg/mL, 1.5 mg/mL and 3 mg/mL. The vehicles were 5% DMSO+30% polyethylene glycol 300+65% water.
The experimental indexes were used for investigating whether the growth of the tumors had been inhibited, delayed or cured. The diameters of the tumors were measured with vernier calipers twice a week. The calculation formula of the tumor volume was: V=0.5a×b^2, wherein a and b represent the long and short diameters of the tumor respectively.
The antitumor efficacy of the compound was evaluated by TGI (%) or relative tumor proliferation rate T/C (%). TGI (%) reflects the inhibition rate of the tumor growth. Calculation of TGI (%): TGI (%)=[1−(average tumor volume at the end of administration in the treatment group−average tumor volume at the beginning of administration in the treatment group)/(average tumor volume at the end of treatment in the vehicle control group−average tumor volume at the beginning of treatment in the vehicle control group)]×[…].
Relative tumor proliferation rate T/C (%): The calculation formula was as follows: T/C %=TRTV/CRTV at the beginning of the treatment (TRTV: treatment group RTV; CRTV: negative control group RTV). The relative tumor volume (RTV) was calculated according to the results of tumor measurement. The calculation formula was RTV=Vt/V0, wherein V0 is the average tumor volume measured during administration of the groups (i.e. d0), and Vt is the average tumor volume during a certain measurement, the TRTV and CRTV were taken on the same day.
Statistical analysis included the mean and standard error (SEM) of tumor volume at each time point in each group. […] The comparison between two groups was analyzed by T-test, and the comparison between three or more groups was analyzed by one-way ANOVA.

[5] = system: N87 cell; assay: Cell proliferation inhibitory activity (Cell-Titer-Glo), N87; type: cell-based; settings: 72 h; 3 days incubation
Source text: as §1, §2, §3, §4, §5, §6, §7, §8, §9, §10, §11, §12

SMILES	Kd [2]	IC50 [3]	also measured
CNC(=O)c1cccc(-c2ccc3c(N4C5CCC4COC5)nc(N4CCOC5(CC5)C4)nc3n2)c1 [Embodiment 9]	0.34 nM	262 nM	
CNC(=O)c1cccc(-c2ccc3c(N4CCOCC4C)nc(N4CCC5(CC4)OCCO5)nc3n2)c1 (stereo not drawn) [Embodiment 12]	0.75 nM	251 nM	
CNC(=O)c1cccc(-c2ccc3c(N4CCOC[C@@H]4C)nc(N4CCOC5(CCOCC5)C4)nc3n2)c1 [Embodiment 13]	0.64 nM	255 nM	
C[C@H]1COCCN1c1nc(N2CCOC3(CC3)C2)nc2nc(-c3cccc(C(=O)NC4CC4)c3)ccc12 [Embodiment 21]	0.47 nM	190 nM	
CNC(=O)c1cccc(-c2ccc3c(N4CCOC[C@@H]4C)nc(N4CCOC5(CCCC5)C4)nc3n2)c1 [Embodiment 24]	0.41 nM	206 nM	
CNC(=O)c1cccc(-c2ccc3c(N4CC5CCC(C4)O5)nc(N4CCOC5(CC5)C4)nc3n2)c1 [Embodiment 26]	1 nM	431 nM	
C[C@H]1COCCN1c1nc(N2CCOCC3(CCC3)C2)nc2nc(-c3cccc(C(N)=O)c3)ccc12 [Embodiment 36]		360 nM	
CNC(=O)c1cccc(-c2ccc3c(N4CCOC[C@@H]4C)nc(N4CCOCC5(CCC5)C4)nc3n2)c1 [Embodiment 37]		252 nM	
C[C@H]1COCCN1c1nc(N2CCOCC3(CC3)C2)nc2nc(-c3cccc(C(N)=O)c3)ccc12 [Embodiment 38]		449 nM	
CNC(=O)c1cccc(-c2ccc3c(N4CCOC[C@@H]4C)nc(N4CCOCC5(CC5)C4)nc3n2)c1 [Embodiment 39]		268 nM	
CC1COCCN1c1nc(N2CCOC3(CCCC3)C2)nc2nc(-c3cccc(C(N)=O)c3)ccc12 (stereo not drawn) [Embodiment 49]	0.3 nM		T/C [4]: 121.62%; TGI [4]: −37.89%; RTV (27th day) ([4]; 27th day): 5.07 ± 0.92; Tumor volume (27th day) ([4]; 27th day, mean ± SEM): 759 ± 174 mm^3; Tumor volume (day 0) ([4]; day 0, mean ± SEM): 144 ± 14 mm^3
C[C@H]1COCCN1c1nc(N2CCOC3(COC3)C2)nc2nc(-c3cccc(C(N)=O)c3)ccc12 [Embodiment 52]	0.8 nM	586 nM	
COc1ccc(-c2ccc3c(N4CCOC[C@@H]4C)nc(N4CCOC5(CC5)C4)nc3n2)cc1CO [Embodiment 54]			IC50 [5]: 119 nM
COc1ccc(-c2ccc3c(N4CCOC[C@@H]4C)nc(N4CCOC5(CC5)C4)nc3n2)cc1C(N)=O [Embodiment 56]			IC50 [5]: 167 nM

Continued, in another order:

Kd [2]	IC50 [3]	SMILES	also measured
0.79 nM		CNC(=O)c1cccc(-c2ccc3c(N4CCOCC4C)nc(N4CCOC5(CCOC5)C4)nc3n2)c1 (single isomer, unassigned) [Embodiment 32-1]	IC50 ([1]; Homo sapiens, HT-29, 72 h): 744 nM
1.5 nM		CNC(=O)c1cccc(-c2ccc3c(N4CCOCC4C)nc(N4CCOC5(CCOC5)C4)nc3n2)c1 (single isomer, unassigned) [Embodiment 32-2]	IC50 [1]: 1410 nM
0.78 nM		CNC(=O)c1cccc(-c2ccc3c(N4CCOCC4C)nc(N4CCOC5(CC(O)C5)C4)nc3n2)c1 (single isomer, unassigned) [Embodiment 33-1]	IC50 ([1]; Homo sapiens, HT-29, 72 h): 1970 nM
0.38 nM		CNC(=O)c1cccc(-c2ccc3c(N4CCOCC4C)nc(N4CCOC5(CC(O)C5)C4)nc3n2)c1 (single isomer, unassigned) [Embodiment 33-2]	IC50 [1]: 1250 nM
1 nM		CNC(=O)c1cccc(-c2ccc3c(N4CCOCC4C)nc(N4CCOC5(CC(OC)C5)C4)nc3n2)c1 (single isomer, unassigned) [Embodiment 34-1]	IC50 ([1]; Homo sapiens, HT-29, 72 h): 1050 nM
0.73 nM		CNC(=O)c1cccc(-c2ccc3c(N4CCOCC4C)nc(N4CCOC5(CC(OC)C5)C4)nc3n2)c1 (single isomer, unassigned) [Embodiment 34-2]	IC50 [1]: 833 nM
0.7 nM	176 nM	CNC(=O)c1cccc(-c2ccc3c(N4CCOCC4C)nc(N4CC5(CCOC5)OCC4C)nc3n2)c1 (single isomer, unassigned) [Embodiment 48-2]	
0.7 nM	636 nM	CC1COCCN1c1nc(N2CCOC3(CCOC3)C2)nc2nc(-c3cccc(C(N)=O)c3)ccc12 (single isomer, unassigned) [Embodiment 50-2]	
